Read-outs that look alike come from different tables or passages of the source.

Series [1] is described as follows: Stability of prodrugs in swine serum. The class given is in vitro ADME. Particulars: 37° C., florfenicol release by HPLC. Here is the method:
(§1) Determination of stability of prodrugs in bovine or swine serum; • 10 mg/mL in dimethylsulfoxide stock solutions of pro-drugs were prepared. 50 μL of the above stock solution was added to 5 mL bovine or swine serum, and mixed. 400 μL aliquots of the above pro-drug serum solutions were transferred into plastic tubes (one tube per time point). Solutions were incubated at 37° C. for predetermined time. Samples were removed at times 0, 1, 2, 4, 8, and 24 hours and were spiked with 400 μL of acetonitrile. Samples were stirred for 30 seconds to precipitate the protein and to stop the reaction and were centrifuged at 14,000 rpm for 5 minutes. The supernatant was collected for HPLC analysis. Peak area of florfenicol was used to determine the rate of the parent drug release HPLC Conditions
(§2) Solvent: gradient with 0.1% formic acid in water, acetonitrile

Series [2] is described as follows: Stability of prodrugs in aqueous solution at pH 4.5. Conditions: distilled water, pH 4.5, room temperature, florfenicol release by HPLC. The class given is physicochemical. Here is the method: (§3) Determination of stability of prodrugs in aqueous solutions. Prodrugs were dissolved in pH 7.4 phosphate buffer at concentration of 1 mg/mL. • The clear solution was placed at room temperature. 400 μL aliquots of the solution were transferred at times 0, 1, 2, 8, 24, and 48 hours to plastic tubes containing 400 μL dilute HCl solution to achieve the final pH of around 4.0. Samples were analyzed by HPLC. The peak area of florfenicol was used to determine the rate of the parent drug release. at pH 4.5 • Prodrugs were dissolved in distilled water at concentration of 0.5 mg/mL. The pH was adjusted to 4.5 with dilute HCl when necessary. The clear solution was placed at room temperature. Samples for analysis were removed at times 0, 1, 2, 4, and 7 days. Samples were analyzed by HPLC. Peak area of florfenicol was used to determine the rate of the parent drug release. Instrument: Agilent 1100 Column: C18, 5 mm, 2.1 mm×150 mm Flow rate: 0.5 mL/min Temperature: 30° C. Detector: UV 254 nm Injection volume: 10 mL Solvent: gradient with 0.1% formic acid in water, acetonitrile

Series [3] can be described thus: Stability of prodrugs in aqueous solution at pH 7.4 (phosphate buffer). The class given is physicochemical. Conditions: in vitro evaluation, pH 7.4 adjusted solution.
Series [4] can be described thus: Stability of prodrugs in bovine serum. Conditions: for half-life at 0.099 mg/mL: 37° C. Format: in vitro ADME. As to the method: as §1, §2
Series [5] can be described thus: Stability of prodrugs in aqueous solution at pH 7.4 (phosphate buffer). Format: physicochemical. As to the method: Determination of stability of prodrugs in aqueous solutions.
as §3, with “Prodrugs” for “Determination of stability of prodrugs in aqueous solutions. Prodrugs”, “release.” for “release. Instrument: Agilent 1100 Column: C18, 5 mm, 2.1 mm×150 mm Flow rate: 0.5 mL/min Temperature: 30° C. Detector: UV 254 nm Injection volume: 10 mL Solvent: gradient with 0.1% formic acid in water, acetonitrile”
as §2

[6] abbreviates: pH 7.4, pH 7.4 phosphate buffer, 1 mg/mL, room temperature, florfenicol release by HPLC, read-out: Half life pH 7.4 (converted).
The mark [7] stands for this setting: pH 7.4, pH 7.4 aqueous solutions, range from a few minutes to 3 hrs, read-out: Half-lives in pH 7.4 aqueous solutions.

Regarding `CNCCCOC(=O)O[C@H](c1ccc(S(C)(=O)=O)cc1)[C@@H](CF)NC(=O)C(Cl)Cl.Cl` [Example 6, (1R,2S)-2-(2,2-dichloroacetamido)-3-fluoro-1-(4-(methylsulfonyl)phenyl)propyl 3-(methylamino)propyl carbonate hydrochloride], the half-life at 0.099 mg/mL in series [1] was 7 h; in series [4] (florfenicol release by HPLC), 0.69 h. The half-life at 0.5 mg/mL in series [2] was 269 days. In series [3], the “formation of the rearranged isomer of the prodrug” value (shortened to “formation”) is given as “did not show any formation of the rearranged isomer”. In series [5] (setting [6]), the half-life at 1 mg/mL is 74 h.
With `CS(=O)(=O)c1ccc([C@@H](OC(=O)OCCN)[C@@H](CF)NC(=O)C(Cl)Cl)cc1.Cl` [Example 1, (1R,2S)-2-(2,2-dichloroacetamido)-3-fluoro-1-(4-(methylsulfonyl)phenyl)propyl 2-aminoethyl carbonate hydrochloride], the half-life at 0.5 mg/mL in series [2] is 202 days. Further, in series [3], the “formation” value is “considerable amounts”. Moreover, the half-life at 0.099 mg/mL in series [4] (florfenicol release by HPLC) was 0.7 h. The half-life at 1 mg/mL in series [5] (setting [7]) was at most 3 h; in series [5] (setting [6]) it was 1.8 h.
On to `CS(=O)(=O)c1ccc([C@@H](OC(=O)CCCCN)[C@@H](CF)NC(=O)C(Cl)Cl)cc1.Cl` [Example 10, (1R,2S)-2-(2,2-dichloroacetamido)-3-fluoro-1-(4-(methylsulfonyl)phenyl)propyl 5-aminopentanoate hydrochloride], for which the half-life at 0.099 mg/mL in series [1] was 4.1 h; in series [4] (florfenicol release by HPLC), 0.49 h. Besides, in series [2], the half-life at 0.5 mg/mL is 643 days. Besides, the half-life at 1 mg/mL in series [5] (setting [6]) is 100 h.
For the compound `CCNCCOC(=O)O[C@H](c1ccc(S(C)(=O)=O)cc1)[C@@H](CF)NC(=O)C(Cl)Cl.Cl` [Example 7, (1R,2S)-2-(2,2-dichloroacetamido)-3-fluoro-1-(4-(methylsulfonyl)phenyl)propyl 2-(ethylamino)ethyl carbonate hydrochloride], the half-life at 0.5 mg/mL in series [2] was 156 days. Besides, the “formation” value in series [3] is listed as “considerable amounts”. For the same compound, the half-life at 0.099 mg/mL in series [4] (florfenicol release by HPLC) is 0.59 h. In addition, the half-life at 1 mg/mL in series [5] (setting [7]) was at most 3 h; in series [5] (setting [6]), 6.1 h.
With `C[C@H](N)C(=O)N[C@@H](C)C(=O)O[C@H](c1ccc(S(C)(=O)=O)cc1)[C@@H](CF)NC(=O)C(Cl)Cl.Cl` [Example 11, (1R,2S)-2-(2,2-dichloroacetamido)-3-fluoro-1-(4-(methylsulfonyl)phenyl)propyl 2-(2-amino-propionylamino)propionate hydrochloride], in series [2], the half-life at 0.5 mg/mL is 290 days. Moreover, the half-life at 0.099 mg/mL in series [4] (min) is under 0.167 h. Moreover, the half-life at 1 mg/mL in series [5] (setting [7]) is at most 3 h; in series [5] (setting [6]), 2.5 h.
Consider `C[C@@H](N)C(=O)NCCCC(=O)O[C@H](c1ccc(S(C)(=O)=O)cc1)[C@@H](CF)NC(=O)C(Cl)Cl.Cl` [Example 4, (1R,2S)-2-(2,2-dichloroacetamido)-3-fluoro-1-(4-(methylsulfonyl)phenyl)propyl 4-(2-amino-propionylamino)butyrate hydrochloride], for which the half-life at 0.5 mg/mL in series [2] was 278 days. Besides, the half-life at 0.099 mg/mL in series [4] (florfenicol release by HPLC) is 6.5 h. Besides, the half-life at 1 mg/mL in series [5] (setting [6]) was 670 h.
Taken in the same sequence, the figures for `CS(=O)(=O)c1ccc([C@@H](OC(=O)CN)[C@@H](CF)NC(=O)C(Cl)Cl)cc1` [Example 17, Amino-acetic acid 2-(2,2-dichloro-acetylamino)-3-fluoro-1-(4-methanesulfonyl-phenyl)-propyl ester] were 18 days, 1.8 h and 4.4 h.
The matching figures for `CNCCCCC(=O)O[C@H](c1ccc(S(C)(=O)=O)cc1)[C@@H](CF)NC(=O)C(Cl)Cl.Cl` [Example 12]: 567 days, 1.4 h and 84 h.
With `CNCCOC(=O)O[C@H](c1ccc(S(C)(=O)=O)cc1)[C@@H](CF)NC(=O)C(Cl)Cl.Cl` [Example 2, (1R,2S)-2-(2,2-dichloroacetamido)-3-fluoro-1-(4-(methylsulfonyl)phenyl)propyl 2-(methylamino)ethyl carbonate hydrochloride], the half-life at 0.5 mg/mL in series [2] is 487 days. Further, in series [3], the “formation” value is reported as “considerable amounts”. Also, the half-life at 1 mg/mL is at most 3 h in series [5] (setting [7]) and 0.5 h in series [5] (setting [6]).
Take `CS(=O)(=O)c1ccc([C@@H](OC(=O)[C@H](N)CCCN)[C@@H](CF)NC(=O)C(Cl)Cl)cc1.Cl.Cl` [Example 8]: the half-life at 0.5 mg/mL in series [2] is 44 days. Also, in series [4] (min), the half-life at 0.099 mg/mL was under 0.167 h. The half-life at 1 mg/mL was at most 3 h in series [5] (setting [7]) and under 0.167 h in series [5] (pH 7.4, pH 7.4 phosphate buffer, 1 mg/mL, room temperature, min, read-out: Half life pH 7.4 (converted)).
Regarding `CS(=O)(=O)c1ccc([C@@H](OC(=O)COCCN)[C@@H](CF)NC(=O)C(Cl)Cl)cc1.Cl` [Example 14, (1R,2S)-2-(2,2-dichloroacetamido)-3-fluoro-1-(4-(methylsulfonyl)phenyl)propyl (2-amino-ethoxy)acetate hydrochloride], the half-life at 0.5 mg/mL in series [2] was 137 days. Moreover, in series [4] (min), the half-life at 0.099 mg/mL was under 0.167 h. In addition, the half-life at 1 mg/mL was at most 3 h in series [5] (setting [7]) and 0.66 h in series [5] (setting [6]).
On to `CS(=O)(=O)c1ccc([C@@H](OC(=O)OCCCN)[C@@H](CF)NC(=O)C(Cl)Cl)cc1.Cl` [Example 5, (1R,2S)-2-(2,2-dichloroacetamido)-3-fluoro-1-(4-(methylsulfonyl)phenyl)propyl 3-aminopropyl carbonate hydrochloride], for which the values for the half-life at 0.099 mg/mL in series [1] and in series [4] (florfenicol release by HPLC) were 9.5 h and 3.8 h, respectively. In addition, the half-life at 0.5 mg/mL in series [2] was 248 days. The “formation” value in series [3] is “only a small amount of rearrangement product”. For the same compound, the “rearrangement in bovine serum” value in series [4] is recorded as “no rearrangement was observed”. The half-life at 1 mg/mL in series [5] (setting [6]) was 83 h.
With `Br.Cn1cc[n+](CCCC(=O)O[C@H](c2ccc(S(C)(=O)=O)cc2)[C@@H](CF)NC(=O)C(Cl)Cl)c1` [Example 16, 1-[3-[2-(2,2-Dichloro-acetylamino)-3-fluoro-1-(4-methanesulfonyl-phenyl)-propoxycarbonyl]-propyl]-3-methyl-3H-imidazol-1-ium bromide], the half-life at 0.5 mg/mL in series [2] was over 1000 days. For the same compound, the half-life at 0.099 mg/mL in series [4] (florfenicol release by HPLC) was 10.5 h. In series [5] (setting [6]), the half-life at 1 mg/mL is 350 h.
In the case of `CS(=O)(=O)c1ccc([C@@H](OC(=O)CCCN)[C@@H](CF)NC(=O)C(Cl)Cl)cc1.Cl` [Example 3, (1R,2S)-2-(2,2-dichloroacetamido)-3-fluoro-1-(4-(methylsulfonyl)phenyl)propyl 4-aminobutyrate hydrochloride], the half-life at 0.099 mg/mL in series [4] (florfenicol release by HPLC) is 3.5 h. In addition, in series [5] (setting [6]), the half-life at 1 mg/mL was 300 h.
On to `CCNCCCOC(=O)O[C@H](c1ccc(S(C)(=O)=O)cc1)[C@@H](CF)NC(=O)C(Cl)Cl.Cl` [Example 13, (1R,2S)-2-(2,2-dichloroacetamido)-3-fluoro-1-(4-(methylsulfonyl)phenyl)propyl 3-(ethylamino)propyl carbonate hydrochloride], for which the half-life at 0.5 mg/mL in series [2] was 339 days. Besides, the half-life at 0.099 mg/mL in series [4] (florfenicol release by HPLC) is 0.71 h. Besides, the half-life at 1 mg/mL in series [5] (setting [6]) was 290 h.
Turning to `CS(=O)(=O)c1ccc([C@@H](OC(=O)CNC(=O)CN)[C@@H](CF)NC(=O)C(Cl)Cl)cc1.Cl` [Example 9, (1R,2S)-2-(2,2-dichloroacetamido)-3-fluoro-1-(4-(methylsulfonyl)phenyl)propyl (1-amino-acetoamino)acetate hydrochloride], the values for the half-life at 0.099 mg/mL in series [1] and in series [4] (florfenicol release by HPLC) were 1.2 h and 1.4 h, respectively. In series [2], the half-life at 0.5 mg/mL is 52 days. The figures for the half-life at 1 mg/mL in series [5] (setting [7]) and in series [5] (setting [6]) were at most 3 h and 0.89 h, respectively.
On to `Br.C[N+](C)(C)CCCC(=O)O[C@H](c1ccc(S(C)(=O)=O)cc1)[C@@H](CF)NC(=O)C(Cl)Cl` [Example 15], for which the half-life at 0.5 mg/mL in series [2] was over 1000 days. Further, in series [5] (setting [6]), the half-life at 1 mg/mL was 160 h.

(Values after patent US8084643B2, “Water-soluble prodrugs of florfenicol and its analogs” (Intervet Inc., priority 2006, dated 2011).)
